The target of experiment [1] is benzodiazepine site of the GABA-A receptor. Description: Benzodiazepine Receptor Binding Assay (inhibition of 3H-flunitrazepam binding). As to conditions: 3H-flunitrazepam ca. 3 nM; 10-20 min at 25° C. As to the method: Selected compounds, which were prepared according to the experimental details given in the following examples, were tested for binding to the benzodiazepine site of the GABA-A receptor (Williams, M. et al., J. Pharm. Exper. Therap. 1988, 248, 89). The ability of the compounds of the invention to inhibit the binding of flunitrazepam to prepared receptors was assessed. For each sample, membranes from ca. 10 mg of tissue were incubated in a K2 HPO4 -buffered incubation medium (final concentration=2.0 mL). The concentration of ligand (^3 H-flunitrazepam) was ca. 3 nM. Samples were incubated 10-20 min at 25° C., after which the membrane material and bound ligand was collected on glass fiber filter sheets using vacuum filtration. The collected material was washed with 10 mM HEPES buffered solution, and the radioactivity associated with each sample was measured by liquid scintillation spectrometry. The binding of the test drug to the receptor was determined by comparing the amount of radiolabeled ligand bound in control samples to the amount of ligand bound in the presence of the drug. Concentration-response data were analyzed in a variety of ways. The IC50 was usually calculated by transforming the data to a log-logit format, then performing a linear regression analysis. This procedure provides a Hill coefficient as well as the IC50 value. An IC50 value of over 10,000 for a particular compound would indicate that the compound was not active in this screen. This is a general screen and compounds active here are have potential utility for the treatment of one or more disorders of the central nervous system.

Experiment [2] has as its system metrazol-induced convulsions. Description: Suppression of Metrazol-Induced Convulsions in Adult Male Mice. It counts as in vivo, mouse (male CD1). The settings on record: 0.5 h; mouse, ip; block of clonic convulsions, CD90 dose of metrazol sc, 30 min observation. As to the method: Compounds of the invention were tested for their ability to reduce metrazol-induced convulsions in mice (Swinyard, E. A. J. Am. Pharm Assoc. 1949, 38, 201). Male CD1 mice, were fasted at least 16 hours, were divided into equal groups and test compounds or vehicle were administered parenterally. Water was not withheld except during the period of observations. At the time of suspected peak activity, anti-pentylenetetrazol (anti-metrazol) activity was evaluated by the subcutaneous administration of the CD90 dose of metrazol (the dose of metrazol was determined from the dose-response curve producing clonic convulsions in 90% of animals that received the corresponding vehicle for this experiment). Metrazol was dissolved in 0.9% sodium chloride solution, and its dose volume was 10 mL/kg. Animals were housed individually for observation of clonic convulsions, tonic convulsions and death for a period of 30 min. Test compounds that blocked the clonic seizure component of the convulsion in at least 50% of the animals were considered active. The biological assay was considered to be valid if the effects of a known anticonvulsant (positive control) were detected, within the same experiment. Activity was reported as percent reduction of clonic convulsions from the vehicle group. The ED50 values of active compounds were calculated by the method of probits (Finney, D. J. 1971. Probit Analysis. London: Cambridge University Press) and are listed in Table 1. […] Compounds active in this screen are considered active anticonvulsion/antiepileptic agents.

The test system of experiment [3] is behavior suppressed by punishment (Rat Conflict). Nature of the experiment: Suppression of Anxiety in the Adult Male Rat (conflict test). The settings on record: ip, minimum effective dose, p<0.05 1-tailed vs vehicle, 3-min test session, read-out: Rat Conflict MED. Type of experiment: in vivo. As to the method: The anxiolytic activity of selected compounds of the invention was assessed by determining their ability to release (disinhibit) behavior that had been suppressed by punishment (Vogel, J. R. et al. Psychopharmacology 1971, 21, 1). Male rats were deprived of water for 48 hrs and were deprived of food for 24 hrs prior to testing. After the first 24 hours of water deprivation, they were placed in the conflict chamber for a training period; wherein, they were allowed 200 unpunished licks from a bottle containing tap water. The experiment was run the next day. At the expected time of peak activity, the animals were placed in the chamber and allowed access to tap water. […] Their first lick initiates a 3-min test session. Subsequently,every 20th lick was punished by a 0.2-s shock delivered via the stainless-steel drinking-tube. Vehicle-treated control animals generally were willing to accept a median number of 3 to 8 shocks per test session. […] The Wilcoxon rank-sum test (Mann-WhitneyU-test) was used to test for an increase (p<0.05, 1-tailed) in the median number of shocks in drug-treated groups, compared to a concurrently run vehicle-treated group. The biological assay is considered to be valid if the effects of a known anxiolytic (positive control) are detected, within the same experiment. A compound was considered active if there is a significant difference in the median number of shocks tolerated between the drug-treated group and the control group. The MED was defined as the minimum dose of the drug-treatment as analyzed using the Wilcoxon rank-sum test (SAS; Statistical Analysis System, version 5.16). If the MED value is greater than 10, an active dose of the compound being tested had not been determined.

Usually IC50 stands for the concentration that inhibits the measured activity by half. A word on the ED50: it is the midpoint of the dose-response relation.

Bounds are passed on as bounds.

For `O=C1CCN2C(=C1C(=O)Nc1ccccc1F)N(Cc1ccco1)c1cc(F)ccc12` [CP# 11], in experiment [1], the half-maximal inhibitory concentration (IC50) amounted to 0.59 nM. The molecule also had a median effective dose (ED50) in experiment [2] of under 10 mg/kg. The minimal effective dose in experiment [3] is over 10 mg/kg.
In experiment [1], `O=C1CCN2C(=C1C(=O)Nc1ccccc1F)N(Cc1c[nH]cn1)c1cc(F)ccc12` [CP# 12, 7-Fluoro-1,2-dihydro-5-[(4-imidazo)methyl]-3-oxo-N-(2-fluorophenyl)pyrido-[1,2-a]benzimidazole-4-carboxamide] yielded a half-inhibitory concentration (IC50) of 0.29 nM. Besides, the 50% effective dose (ED50) in experiment [2] came to 30 mg/kg. Moreover, in experiment [3], the minimal effective dose is over 10 mg/kg.
For `O=C1CCN2C(=C1C(=O)Nc1ccccc1F)N(Cc1ccc[n+]([O-])c1)c1cc(F)ccc12` [CP# 13], the 50% inhibitory concentration (IC50) in experiment [1] is 5.19 nM. Besides, it took a dose of 3 mg/kg to reach the 50% effect level in experiment [2] (ED50). For the same molecule, in experiment [3], the minimal effective dose was over 10 mg/kg.
The matching figures for `O=C1CCN2C(=C1C(=O)Nc1ccccc1F)N(Cc1cc[n+]([O-])cc1)c1cc(F)ccc12` [CP# 14]: 13.4 nM, 10 mg/kg and over 10 mg/kg.
The matching figures for `O=C1CCN2C(=C1C(=O)Nc1ccccc1F)N(CCc1ccccn1)c1cc(F)ccc12` [CP# 15]: 0.89 nM, 0.3 mg/kg and 10 mg/kg.
As for `O=C1CCN2C(=C1C(=O)Nc1ccccc1F)N(Cc1ccncc1)c1cc(F)ccc12` [CP# 16], the IC50 in experiment [1] came to 3.01 nM. Moreover, in experiment [2], the 50% effective dose (ED50) is 3 mg/kg. Further, the minimal effective dose in experiment [3] is over 10 mg/kg.
On to `O=C1CCN2C(=C1C(=O)Nc1ccccc1F)N(Cc1cccnc1)c1cc(F)ccc12` [CP# 17, 7-Fluoro-1,2-dihydro-5-(3-pyridylmethyl)-3-oxo-N-(2-fluorophenyl)pyrido[1,2-a]benzimidazole-4-carboxamide], for which, in experiment [1], the 50% inhibitory concentration (IC50) was 1.27 nM. Also, the ED50 in experiment [2] amounted to 1 mg/kg. The minimal effective dose in experiment [3] is over 10 mg/kg.
`O=C1CCN2C(=C1C(=O)Nc1c(F)cccc1F)N(CCc1cccs1)c1cc(F)ccc12` [CP# 18] registered a concentration for half-maximal inhibition (IC50) in experiment [1] of 0.61 nM. Further, it took a dose of 10 mg/kg to reach the 50% effect level in experiment [2] (ED50). For the same molecule, in experiment [3], the minimal effective dose is over 10 mg/kg.
In the case of `O=C1CCN2C(=C1C(=O)Nc1ccccc1F)N(Cc1ccsc1)c1cc(F)ccc12` [CP# 19, 7-Fluoro-1,2-dihydro-5-[(3-thienyl)methyl]-3-oxo-N-(2-fluorophenyl)pyrido-[1,2-a]benzimidazole-4-carboxamide], the half-maximal inhibitory concentration (IC50) in experiment [1] was 0.71 nM. The same molecule registered an ED50 in experiment [2] of 0.7 mg/kg. Besides, in experiment [3], the minimal effective dose was under 10 mg/kg.
As for `O=C1CCN2C(=C1C(=O)Nc1ccccc1F)N(CCc1ccsc1)c1cc(F)ccc12` [CP# 20, 7-Fluoro-1,2-dihydro-5-[2-(3-thienyl)ethyl]3-oxo-N-(2-fluorophenyl)pyrido[1,2-a]benzimidazole-4-carboxamide], the IC50 in experiment [1] worked out at 0.096 nM. In experiment [2], this molecule registered an ED50 of 0.1 mg/kg. Also, in experiment [3], the minimal effective dose is under 10 mg/kg.
The corresponding values for `O=C1CCN2C(=C1C(=O)Nc1ccccc1F)N(Cc1cccs1)c1cc(F)ccc12` [CP# 21, 7-Fluoro-1,2-dihydro-5-[(2-thienyl)methyl]-3-oxo-N-(2-fluorophenyl)pyrido-[1,2-a]benzimidazole-4-carboxamide] are 0.3 nM, under 1 mg/kg and under 10 mg/kg.
With `O=C1CCN2C(=C1C(=O)Nc1ccccc1F)N(Cc1ccccn1)c1cc(F)ccc12` [CP# 22], the IC50 in experiment [1] was 2.79 nM. The ED50 in experiment [2] is under 1 mg/kg. Further, in experiment [3], the minimal effective dose is under 10 mg/kg.
Turning to `O=C1CCN2C(=C1C(=O)Nc1c(F)cccc1F)N(Cc1ccsc1)c1cc(F)ccc12` [CP# 23], the IC50 in experiment [1] was 4.24 nM. Also, in experiment [2], the ED50 is over 10 mg/kg. Moreover, in experiment [3], the minimal effective dose was over 10 mg/kg.
Molecule `O=C1CCN2C(=C1C(=O)Nc1c(F)cccc1F)N(Cc1ccccn1)c1cc(F)ccc12` [CP# 24] showed a half-inhibitory concentration (IC50) in experiment [1] of 24.4 nM. Further, the 50% effect level in experiment [2] (ED50) was put at a dose of 3 mg/kg. For the same molecule, the minimal effective dose in experiment [3] amounted to 10 mg/kg.
In experiment [1], `O=C1CCN2C(=C1C(=O)Nc1c(F)cccc1F)N(CCc1ccsc1)c1cc(F)ccc12` [CP# 25] registered a concentration for half-maximal inhibition (IC50) of 0.22 nM. The molecule further registered a median effective dose (ED50) in experiment [2] of 3 mg/kg. For the same molecule, the minimal effective dose in experiment [3] is under 10 mg/kg.
The corresponding values for `O=C1CCN2C(=C1C(=O)Nc1c(F)cccc1F)N(Cc1cccs1)c1cc(F)ccc12` [CP# 26] are 2.98 nM, under 10 mg/kg and over 10 mg/kg.
`O=C1CCN2C(=C1C(=O)Nc1c(F)cccc1F)N(Cc1ccco1)c1cc(F)ccc12` [CP# 27]: the IC50 in experiment [1] was found to be 1.26 nM. Also, the ED50 in experiment [2] turned out to be 1 mg/kg. In experiment [3], the minimal effective dose is over 10 mg/kg.
The molecule `O=C1CCN2C(=C1C(=O)Nc1ccccc1F)N(Cc1ccccn1)c1ccccc12` [CP# 28, 1,2-Dihydro-5-(2-pyridylmethyl)-3-oxo-N-(2-fluorophenyl)pyrido[1,2-a]-benzimidazole-4-carboxamide] had a concentration for half-maximal inhibition (IC50) in experiment [1] of 3.77 nM. It took a dose of 0.5 mg/kg to reach the 50% effect level in experiment [2] (ED50). Further, in experiment [3], the minimal effective dose was under 10 mg/kg.
The corresponding values for `O=C1CCN2C(=C1C(=O)Nc1c(F)cccc1F)N(Cc1ccccn1)c1ccccc12` [CP# 29] are 23.9 nM, 3 mg/kg and over 10 mg/kg.
`O=C1CCN2C(=C1C(=O)Nc1ccccc1F)N(Cc1cccnc1)c1ccccc12` [CP# 30]: the IC50 in experiment [1] was 4.54 nM. The same molecule gave a 50% effective dose (ED50) in experiment [2] of 10 mg/kg. In addition, the minimal effective dose in experiment [3] worked out at 10 mg/kg.

The values above are taken from US5922731A, “5-[(heteroaryl)alkyl]-3-oxo-pyrido[1,2-a]benzimidazole-4-carboxamide derivatives useful in treating central nervous system disorders” (Ortho Pharmaceutical Corporation, priority 1997, dated 1999).
